Test [1] has as its target T1, GR (Homo sapiens, UniProt P04150).
T1 sequence (P04150 1-777): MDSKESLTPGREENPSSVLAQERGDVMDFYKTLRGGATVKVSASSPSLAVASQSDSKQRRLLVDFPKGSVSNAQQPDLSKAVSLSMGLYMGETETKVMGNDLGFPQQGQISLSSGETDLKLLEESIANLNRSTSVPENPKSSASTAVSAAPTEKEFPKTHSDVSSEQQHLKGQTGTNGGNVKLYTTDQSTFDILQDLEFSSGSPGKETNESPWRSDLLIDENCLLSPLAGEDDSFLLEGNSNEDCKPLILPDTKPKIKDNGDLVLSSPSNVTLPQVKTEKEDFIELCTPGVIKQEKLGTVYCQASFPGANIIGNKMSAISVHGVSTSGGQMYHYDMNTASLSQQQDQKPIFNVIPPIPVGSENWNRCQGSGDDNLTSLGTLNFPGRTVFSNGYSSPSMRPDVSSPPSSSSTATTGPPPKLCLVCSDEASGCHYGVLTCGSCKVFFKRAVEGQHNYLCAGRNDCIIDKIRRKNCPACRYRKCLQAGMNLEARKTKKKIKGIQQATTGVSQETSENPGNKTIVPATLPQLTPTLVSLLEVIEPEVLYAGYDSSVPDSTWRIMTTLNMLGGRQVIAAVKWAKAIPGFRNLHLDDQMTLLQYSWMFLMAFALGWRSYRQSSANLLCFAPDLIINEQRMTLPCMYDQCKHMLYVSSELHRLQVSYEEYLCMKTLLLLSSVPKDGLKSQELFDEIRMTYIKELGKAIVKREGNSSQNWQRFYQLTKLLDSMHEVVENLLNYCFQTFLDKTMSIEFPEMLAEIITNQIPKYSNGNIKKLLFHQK
As to the kind of experiment: GRE-Luc reporter gene transactivation in MCF-7 cells. The test is classed as cell-based. Also noted: endogenous in cells; host or cells: MCF-7. As to conditions: MCF7, DEX 100 nM, test compound 100 nM, read-out: inhibition of DEX-induced luciferase transactivation (GRE-Luc). (In general: Reporter assays use an easily measured gene product as a stand-in for the process of interest.)

A further test has as its system T-47D cells. Briefly: Apoptosis, sub-G1 quantification by flow cytometry in T-47D cells. As to conditions: 48 h. Format: cell-based, human. How it is done:
(§1) After seeding, cells were cultured for 24 h in serum and phenol red free medium. Then treatments were carried out in a phenol red free medium containing 5% dextran-charcoal stripped serum. Cells were treated with P or DEX (100 nM), alone or in combination with UPA, RU (1 nM to 1 μM) or CDB-3877 (100 nM). Control cells were treated with ethanol, at […] 1:1000 final ethanol concentration alone as vehicle or E2 (10 nM).
After 96 h or 48 h of hormonal treatment, respectively, for HBE or MCF-7 and T-47D cells, cells were washed in PBS, matrix dissociated with accutase enzyme (PAA laboratory, Les Mureaux, France), and centrifuged 5 minutes at 1350 rpm. Cells were fixed and frozen at −20° C. in 70% ethanol. Before analysis, cells were washed in PBS and stained with 10 μg/ml propidium iodide in PBS (containing 0.835 U/ml RNase A) (Sigma, St Quentin Fallavier, France). For each sample at least 10 000 cells were counted in a BD LSR II flow cytometer (BD Biosciences, Le Pont de Claix, France). After gating out doublets and debris, cycle distribution was analyzed using the ModFit LT software (Verity Software House, USA).

Another test deals with hPR-A and hPR-B. Briefly: MMTV-Luc reporter gene transactivation in HBE cells transfected with hPR-A and/or hPR-B. The test is classed as cell-based, human.
In test [2] the test system is PR target genes (FASN, cyclin A, BCL2, ALPL). As to the kind of experiment: qRT-PCR mRNA expression of PR target genes in T-47D cells. Format: cell-based, human. As for the experimental part:
as §1
Total RNA was extracted using TriZOL Reagent (Invitrogen, Cergy-Pontoise, France).
2 μg of total RNA was subjected to reverse transcription (RT) using random primers for 1 h at 37° C. 2 μl of RT product was diluted (1:10) and subjected to quantitative PCR using sequence specific primers (300 nM) and Brillant SYBR GREEN QPCR master mix (Fermentas, Saint-Rémy-lès-Chevreuse, France) on an Mx3000P apparatus (Agilent Technologies, Massy, France). Conditions were 1 cycle at 95° C. for 10 min followed by 40 cycles at 95° C. for 30 sec, 60° C. for 1 min and 72° C. for 30 sec. Gene expression values were normalized to the housekeeping gene 36B4. Time of steroid treatment was chosen to get the optimal stimulation for a given gene. ALPL and G0S8 mRNA were analyzed after 6 h of treatment. IEX-1, FASN, and BCL2 were analyzed after 24 h of treatment. Cyclin A mRNA was analyzed after 24 h for GR responses or 48 h for PR responses.

The target in test [3] is T1, GR. Briefly: GRE-Luc reporter gene transactivation in HBE cells. Format: cell-based. As to conditions: DEX 100 nM, test compound 100 nM, read-out: inhibition of DEX induced luciferase transactivation (GRE-Luc).
Another test deals with HBE cells. As to the kind of experiment: Tritiated thymidine incorporation (proliferation) in HBE cells. Format: cell-based, human. As to conditions: 96 h. As for the experimental part:
as §1
After 24 h of hormonal treatment, cells were incubated with [methyl-1 3H] thymidine (Perkin Elmer, Courtaboeuf, France) for 48 h or 20 h for KBE or cancer cells, respectively at 37° C. After incubation cells were washed twice with PBS 1× and once with 5% trichloroacetic acid (TCA). Cells were incubated in 5% TCA for 15 min at 4° C. and lysed in NaOH 0.1 N for 30 min at 37° C. The total cell lysate was added to 5 ml of Ecolite scintillation liquid (MP biomedical, Illkirch, France) and radioactivity was counted with a β-counter HIDEX 300SL (ScienceTec, Courtaboeuf, France).

Description for hPR-A and hPR-B: T-47D and MCF-7 cell lines were respectively maintained in RPMI 1640 and in DMEM medium supplemented with 10% fetal calf serum (PAA Laboratory, Les Mureaux, France). […] Normal human breast epithelial cell (HBE) primary cultures were obtained from 20 women (aged 17-50 years). […] HBE cells were maintained in HAM F10 medium (PAA Laboratory, Les Mureaux, France) containing hydrocortisone (5 ng/ml), Triiodo-L-thyronine (6.5 ng/ml), choleratoxin (10 ng/ml), transferrin (5 mg/ml), insulin (0.016 U/ml), epidermal growth factor (10 ng/ml) (Sigma, St Quentin Fallavier, France) and 5% human serum (Etablissement Français du Sang).
After seeding, cells were cultured for 24 h in serum and phenol red free medium. Then treatments were carried out in a phenol red free medium containing 5% dextran-charcoal stripped serum. […] Control cells were treated with ethanol, at 10 1:1000 final ethanol concentration alone as vehicle or E2 (10 nM).
Cells were transfected with reporter gene plasmids containing glucocorticoid and progesterone responsive elements (GRE/PRE): 1) the MMTV-Luc is a Mouse Mammary Tumor Virus Long Terminal Repeat promoter containing one GRE/PRE palindrome and three GRE/PRE hemi-palindromes upstream to firefly luciferase gene in pFC31 vector, 2) the GRELuc contains six copies of GRE/PRE palindrome upstream to firefly luciferase gene in pBL vector. When indicated, HBE cells were transfected with human PR isoforms hPR-A and hPR-B expression plasmids constructed in POP3 vectors. Rous Sarcoma Virus promoter upstream to beta galactosidase gene (pRSV-β-Gal) was transfected in each experiment as control. Transfections were performed according to the manufacturer instructions using Lipofectamine or Lipofectamine LTX Reagents (Invitrogen, Cergy-Pontoise, France) for breast cancer cell lines or HBE cells, respectively. After 24 h of transfection, breast cancer and HBE cells were treated with hormones for 24 h or 48 h, respectively. At the end of the experiment, cells were lysed and luciferase activity was determined using the Luciferase Assay System (Promega, Charbonnières-les-bains, France). Beta galactosidase activity was assessed using the Galacto Star kit (Applied Biosystems, Courtaboeuf, France) to normalize luciferase activity data.

The term inhibition denotes how much of the control response was suppressed. For `CC(=O)O[C@]1(C(C)=O)CCC2C3CCC4=CC(=O)CCC4=C3[C@@H](c3ccc(N(C)C)cc3)C[C@@]21C` (stereo partly shown) [UPA, 17[…]-acetoxy-11[…]-[4-N,N-dimethylamino-phenyl)-19-norpregna-4,9-diene-3,20-dione], the inhibition at 0.1 µM at GR [1] turned out to be 59 ± 3.4%; on GR [3] it was 41.3 ± 5.8%. For the same compound, the “cell apoptosis (sub-G1 percentage), compound alone” value with T-47D cells (100 nM) is “had no apoptotic or survival properties by itself”. For the same compound, the “effect of UPA on P-mediated apoptosis” value in the test on T-47D cells (P 100 nM + UPA 100 nM) is reported as “tended to inhibit this effect”. Moreover, the “inhibition of P induced MMTV-Luc transactivation” value with hPR-A and hPR-B (HBE cells co-transfected with hPR-A and hPR-B, P 100 nM, antagonist 1 to 1000 nM) is recorded as “inhibited P induced MMTV11 Luc transactivation in a dose dependent manner from 1 000 to 10 nM”. In addition, in the test on hPR-A and hPR-B (HBE cells transfected with only hPR-A or hPR-B), the “antagonist performance between PR isoforms (MMTV-Luc)” value is listed as “No difference with increasing the levels of each PR isoform was seen on UPA antagonist performance”. Also, the “lowest concentration necessary to exert a complete antagonist activity” value with hPR-A and hPR-B (HBE cells, MMTV-Luc, P 100 nM) is reported as “A hundred”. Also, in the test with hPR-A and hPR-B (HBE cells, compound alone), the “progestational agonist properties on reporter gene transcription” value is “did not exhibit progestational agonist properties”. Also, in test [2] (P and/or UPA 100 nM, 6 h), the “ALPL mRNA expression” value is given as “totally inhibited the strong P mediated induction of ALPL transcript”. The “FASN mRNA expression” value in test [2] (P and/or UPA 100 nM, 24 h) was “able to prevent P induction of FASN mRNA expression”. The “BCL2 mRNA expression (PR response)” value in test [2] (P and/or UPA 100 nM, 24 h, p<0.01) is reported as “antagonized the P inhibitory effect on this transcript”. Besides, in test [2] (P and/or UPA 100 nM, 48 h), the “cyclin A mRNA expression (PR response)” value is given as “reversed P-induced cyclin A mRNA down-regulation”. For the same compound, in test [2] (UPA 100 nM alone), the “PR agonist activity on PR target genes” value is “did not display any PR agonist activity”. For the same compound, the “cell proliferation ([3H] thymidine incorporation), compound alone” value with HBE cells (100 nM) is given as “had no effect on proliferation”. The “effect of UPA on DEX-mediated proliferation change” value with HBE cells (DEX 100 nM + UPA 100 nM) is “inhibited the strong proliferative activity induced by DEX”. Also, the “effect of UPA on P-mediated proliferation change” value with HBE cells (P 100 nM + UPA 100 nM) is “did not inhibit the anti-proliferative effect induced by P”.

(Values after patent US9814732B2, “Ulipristal acetate for prevention and treatment of breast tumors” (LABORATOIRE HRA-PHARMA, priority 2012, dated 2017).)
